Results as given in patent US12077503B2, “Substituted cyclic amides and their use as herbicides” (FMC CORPORATION, priority 2015, dated 2024).

Assays:
Type in all cases: in vivo
Kochia (Kochia scoparia) [1] = assay: Test A preemergence; settings: Bassia scoparia, pre-emergence, 240 h, Preemergence
Method in brief: (§1)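 Greenhouse, ~10 d after spray; visual injury vs untreated controls, 0 = no effect, 100 = complete control. Preemergence: directed soil spray over planted seeds. Postemergence: plants 2–10 cm, 1–2 leaf stage. Loam/sand blend. Compound in non-phytotoxic solvent with surfactant.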

[2] = system: barnyardgrass (Echinochloa crus-galli); assay: Test A preemergence; settings: Echinochloa crus-galli, pre-emergence, 240 h, Preemergence
Method in brief: as §1

[3] = system: giant foxtail (Setaria faberii); assay: Test A preemergence; settings: Setaria faberi, pre-emergence, 240 h, Preemergence
Method in brief: as §1

[4] = system: pigweed (Amaranthus retroflexus); assay: Test A preemergence; settings: Amaranthus retroflexus, pre-emergence, 240 h, Preemergence
[5] = system: ragweed (common ragweed, Ambrosia elatior); assay: Test A preemergence; settings: Ambrosia artemisiifolia, pre-emergence, 240 h, Preemergence
Method in brief: as §1

[6] = system: ryegrass, Italian (Italian ryegrass, Lolium multiflorum); assay: Test A preemergence; settings: Lolium multiflorum, pre-emergence, 240 h, Preemergence
Method in brief: as §1

[7] = system: Galium (catchweed bedstraw, Galium aparine); assay: Test A postemergence; settings: Galium, post-emergence, 240 h, Postemergence, read-out: Galium plant response rating (0 to 100 scale)
Method in brief: as §1

Kochia (Kochia scoparia) [8] = assay: Test A postemergence; settings: Bassia scoparia, post-emergence, 240 h, Postemergence, read-out: Kochia plant response rating (0 to 100 scale)
Method in brief: as §1

[9] = system: barnyardgrass (Echinochloa crus-galli); assay: Test A postemergence; settings: Echinochloa crus-galli, post-emergence, 240 h, Postemergence
Method in brief: as §1

[10] = system: blackgrass (Alopecurus myosuroides); assay: Test A postemergence; settings: Alopecurus myosuroides, post-emergence, 240 h, Postemergence, read-out: Blackgrass plant response rating (0 to 100 scale)
Method in brief: as §1

corn (Zea mays) = assay: Test A postemergence; settings: Zea mays, post-emergence, 240 h, Postemergence, read-out: Corn plant response rating (0 to 100 scale)
Method in brief: as §1

[11] = system: giant foxtail (Setaria faberii); assay: Test A postemergence; settings: Setaria faberi, post-emergence, 240 h, Postemergence, read-out: Foxtail, Giant plant response rating (0 to 100 scale)
Method in brief: as §1

[12] = system: pigweed (Amaranthus retroflexus); assay: Test A postemergence; settings: Amaranthus retroflexus, post-emergence, 240 h, Postemergence, read-out: Pigweed plant response rating (0 to 100 scale)
Method in brief: as §1

[13] = system: ragweed (common ragweed, Ambrosia elatior); assay: Test A postemergence; settings: Ambrosia artemisiifolia, post-emergence, 240 h, Postemergence, read-out: Ragweed plant response rating (0 to 100 scale)
Method in brief: as §1

[14] = system: ryegrass, Italian (Italian ryegrass, Lolium multiflorum); assay: Test A postemergence; settings: Lolium multiflorum, post-emergence, 240 h, Postemergence, read-out: Ryegrass, Italian plant response rating (0 to 100 scale)
Method in brief: as §1

[15] = system: wheat (Triticum aestivum); assay: Test A postemergence; settings: Triticum aestivum, post-emergence, 240 h, Postemergence, read-out: Wheat plant response rating (0 to 100 scale)
Method in brief: as §1

[16] = system: barnyardgrass (Echinochloa crus-galli); assay: Test B flooded paddy test; settings: Echinochloa crus-galli, 360 h, Flood, 250 g ai/ha; visually evaluated after 13 to 15 d; read-out: Plant response rating, Barnyardgrass (0 to 100 scale where 0 is no effect and 100 is complete control)
Method in brief: (§2)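 Evaluation by eye, against controls, occurred 13–15 d post-treatment in a greenhouse, using a 0 (no effect) to 100 (complete control) scale. Application was into the paddy water, 3 cm deep over the soil, on 2-leaf plants.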

[17] = system: ducksalad (Heteranthera limosa); assay: Test B flooded paddy test; settings: Heteranthera limosa, 360 h, Flood, 250 g ai/ha; visually evaluated after 13 to 15 d; read-out: Plant response rating, Ducksalad (0 to 100 scale where 0 is no effect and 100 is complete control)
Method in brief: as §2

rice (Oryra sativa) = assay: Test B flooded paddy test; settings: Oryza sativa, 360 h, Flood, 250 g ai/ha; visually evaluated after 13 to 15 d; read-out: Plant response rating, Rice (0 to 100 scale where 0 is no effect and 100 is complete control)
Method in brief: as §2

[18] = system: sedge, umbrella (small-flower umbrella sedge, Cyperus difformis); assay: Test B flooded paddy test; settings: Cyperus difformis, 360 h, Flood, 250 g ai/ha; visually evaluated after 13 to 15 d; read-out: Plant response rating, Sedge, Umbrella (0 to 100 scale where 0 is no effect and 100 is complete control)
Method in brief: as §2

[19] = 125 g ai/ha, visual rating about 10 d after treatment
[20] = 31 g ai/ha, 0 is no effect, 100 is complete control

O=C1NC[C@H](c2cc(Br)cc(Br)c2)[C@H]1C(=O)Nc1cccc(F)c1F [Compound 1366]
50%: pest or weed control at 31 g/ha ([3]; 31 g ai/ha, 0 to 100 scale where 0 is no effect and 100 is complete control, read-out: Foxtail, Giant plant response rating)
40%: pest or weed control at 250 g/ha [16]
70%: pest or weed control at 125 g/ha ([2]; 125 g ai/ha, 0 to 100 scale (0 no effect, 100 complete control), read-out: Plant response rating, Barnyardgrass) | pest or weed control at 125 g/ha [7, 19] | pest or weed control at 125 g/ha ([9]; 125 g ai/ha, visual rating about 10 d after treatment, read-out: Barnyardgrass plant response rating (0 to 100 scale, 0 no effect, 100 complete control)) | pest or weed control at 125 g/ha [11, 19]
60%: pest or weed control at 31 g/ha ([2]; 31 g ai/ha, 0 to 100 scale where 0 is no effect and 100 is complete control, read-out: Barnyardgrass plant response rating)
30%: pest or weed control at 31 g/ha [11, 20]
90%: pest or weed control at 125 g/ha ([3]; 125 g ai/ha, 0 to 100 scale (0 no effect, 100 complete control), read-out: Plant response rating, Foxtail, Giant)
20%: pest or weed control at 31 g/ha ([9]; 31 g ai/ha, 0 is no effect, 100 is complete control, read-out: Barnyardgrass plant response rating (0 to 100 scale))
80%: pest or weed control at 125 g/ha [12, 19] | pest or weed control at 250 g/ha [17]
10%: pest or weed control at 125 g/ha ([6]; 125 g ai/ha, 0 to 100 scale (0 no effect, 100 complete control), read-out: Plant response rating, Ryegrass, Italian)
0%: pest or weed control at 31 g/ha (Kochia (Kochia scoparia) [1]; 31 g ai/ha, 0 to 100 scale where 0 is no effect and 100 is complete control, read-out: Kochia plant response rating) | pest or weed control at 125 g/ha (Kochia (Kochia scoparia) [1]; 125 g ai/ha, 0 to 100 scale (0 no effect, 100 complete control), read-out: Plant response rating, Kochia) | pest or weed control at 31 g/ha ([4]; 31 g ai/ha, 0 to 100 scale where 0 is no effect and 100 is complete control, read-out: Pigweed plant response rating) | pest or weed control at 125 g/ha ([4]; 125 g ai/ha, 0 to 100 scale (0 no effect, 100 complete control), read-out: Plant response rating, Pigweed) | pest or weed control at 31 g/ha ([5]; 31 g ai/ha, 0 to 100 scale where 0 is no effect and 100 is complete control, read-out: Ragweed plant response rating) | pest or weed control at 125 g/ha ([5]; 125 g ai/ha, 0 to 100 scale (0 no effect, 100 complete control), read-out: Plant response rating, Ragweed) | pest or weed control at 31 g/ha ([6]; 31 g ai/ha, 0 to 100 scale where 0 is no effect and 100 is complete control, read-out: Ryegrass, Italian plant response rating) | pest or weed control at 31 g/ha [7, 20] | pest or weed control at 125 g/ha (Kochia (Kochia scoparia) [8]; [19]) | pest or weed control at 31 g/ha (Kochia (Kochia scoparia) [8]; [20]) | pest or weed control at 125 g/ha [10, 19] | pest or weed control at 31 g/ha [10, 20] | plant injury at 125 g/ha (corn (Zea mays); [19]) | plant injury at 31 g/ha (corn (Zea mays); [20]) | pest or weed control at 31 g/ha [12, 20] | pest or weed control at 125 g/ha [13, 19] | pest or weed control at 31 g/ha [13, 20] | pest or weed control at 125 g/ha [14, 19] | pest or weed control at 31 g/ha [14, 20] | plant injury at 125 g/ha [15, 19] | plant injury at 31 g/ha [15, 20] | pest or weed control at 250 g/ha (rice (Oryra sativa)) | pest or weed control at 250 g/ha [18]
